Measured values reported in patent publication US20120258053A1, “ORAL CARE COMPOSITIONS FOR USE WITH AN ORAL LIGHT DEVICE” (COLGATE-PALMOLIVE COMPANY, priority 2009, published 2012).
Entries after “also recorded” stand apart in the source; their conditions may differ.

Legend:
biofilm of A. naeslundi = assay: Light-triggered reduction of bacterial biofilm (24 h old); type: cell-based; conditions: for biofilm reduction compared to light alone: 0.1% concentration, in the presence of light; for Percentage Reduction in Biofilm, Light plus photosensitizer: 0.1% dye incubated 2 min prior to irradiation, wavelength given with each dye, 24 J/cm^2 (200 mW/cm^2 @ 2 min)
Protocol: Bacterial biofilms (24 h old) were treated with the photosensitizers or photo-triggered actives described in the tables below at a concentration less than their minimum inhibitory concentration (MIC). The actives were either pre-incubated before light exposure for 2 s to 15 min, typically less than 2 min, or administered at the same time the biofilm was exposed to the light. The bacteria were irradiated at a set wavelength for 2 s to 15 min (typically less than 2 min) at an energy dose between 1-450 J/cm^2. Optical power densities typically ranged from 1-500 mW/cm^2. Light was either pulsed or provided in one continuous light exposure. Pulsed light treatments were preferred for high optical energy treatments.
On a biofilm of A. naeslundi, the impact of four “photosensitizers” (0.1% concentration) in the presence of light was evaluated. MIC typically ranged from 0.0001% (w/v) to 1% (w/v). The percent biofilm reduction is tabulated below.

[1] = test system: TNFα of HEPM cells stimulated by IL-1β; assay: Cytokine concentration in IL-1β stimulated cell culture after light irradiation with dye; type: cell-based, human; conditions: 9 mW/cm^2, 1.1 J/cm^2
Protocol: Cells used in this example include human embryonic palatal mesenchymal (HEPM) cells and oral keratinocytes OBA9 cells. The embodiments also can be used with other cells such as human gingival fibroblasts (HGF). Cells were seeded in 24-well plates and cultured until reaching a confluence above 80%. The confluent-stage cells were treated with stimulants such as IL-1β followed by light irradiation alone, or light irradiation combined with GRAS photosensitizing dye. The cells were either pre-incubated in photosensitizing dye before light exposure, or administered at the same time of light exposure. The cells were incubated in photosensitizing dyes for varied amounts of time, the concentration of photosensitizing dyes were varied, and the cell were irradiated with light for varied amounts of time per exposure, as well as irradiation either one time or multiple times, as described below. After irradiation, the cells were incubated at 37° C. The cell culture media was collected after a certain amount of time for cytokine analysis.
The results tabulated below reveal that visible light (various wavelength, 380-700 nm) alone and photosensitizing dye irradiated with visible light (various wavelength, 380-700 nm) have anti-inflammation effect. […]

Row | Compound | biofilm reduction compared to light alone (biofilm of A. naeslundi) | Percentage Reduction in Biofilm, Light plus photosensitizer (biofilm of A. naeslundi) [%] | effect on TNFα concentration ([1]; Fast Green 1000 ppm combined with light at 625 nm for 2 minutes) | Cytokine Conc. TNF-α, Il-1β + light + Dye ([1]; HEPM cells, IL-1β stimulated, Fast Green 1000 ppm, 625 nm, 2 minutes, Il-1β alone 9, Il-1β + light 5.8) [pg/mL]
1 | COc1cc(S(=O)(=O)[O-])c(C)cc1N=Nc1c(O)ccc2cc(S(=O)(=O)[O-])ccc12.[Na+].[Na+] [Allura Red, Allura Red AC] | increased biofilm reduction compared to light alone | 55 | – | –
2 | O=S(=O)([O-])c1ccc(/N=N/c2cc(S(=O)(=O)[O-])c3ccccc3c2O)c2ccccc12.[Na+].[Na+] [Chromotrope, Chromotrope FB] | – | 18 | – | –
3 | CCN(Cc1cccc(S(=O)(=O)[O-])c1)c1ccc(C(=C2C=CC(=[N+](CC)Cc3cccc(S(=O)(=O)[O-])c3)C=C2)c2ccccc2S(=O)(=O)[O-])cc1.[Na+].[Na+] [Erioglaucine, Erioglaucine disodium salt] | – | 41 | – | –
4 | CCN(Cc1cccc(S(=O)(=O)[O-])c1)c1ccc(C(=C2C=CC(=[N+](CC)Cc3cccc(S(=O)(=O)[O-])c3)C=C2)c2ccc(O)cc2S(=O)(=O)[O-])cc1.[Na+].[Na+] [Fast Green, Fast Green FCF] | increased biofilm reduction compared to light alone | 43 | can decrease pro-inflammation cytokine TNFα concentration; also recorded: can reduce concentration of TNFα | 3.4
5 | O=C1/C(=C2\Nc3ccc(S(=O)(=O)[O-])cc3C2=O)Nc2ccc(S(=O)(=O)[O-])cc21.[Na+].[Na+] [Indigo Carmine] | – | 30 | – | –
6 | CN(C)c1ccc(C(=C2C=CC(=[N+](C)C)C=C2)c2c(O)c(S(=O)(=O)[O-])cc3cc(S(=O)(=O)[O-])ccc23)cc1.[Na+] [Lissamine Green B] | increased biofilm reduction compared to light alone | 43 | – | –
7 | Cc1cc2nc3c(=O)[nH]c(=O)nc-3n(C[C@H](O)[C@H](O)[C@H](O)CO)c2cc1C [Riboflavin] | increased biofilm reduction compared to light alone | 56 | – | –
8 | O=C([O-])C1=NN(c2ccc(S(=O)(=O)[O-])cc2)C(=O)C1N=Nc1ccc(S(=O)(=O)[O-])cc1.[Na+].[Na+].[Na+] (stereo not shown) [Tartrazine] | increased biofilm reduction compared to light alone | 72 | – | –
9 | Chlorophyllin sodium copper salt | – | 21 | – | –
